Earlier results on two substances are cited in EP0136475A2, “Novel growth hormone-releasing peptides and method of treating mammals therewith” (The Administrators of The Tulane University Educational Fund, priority 1983, dated 1985).

This series concerns rat anterior pituitary.

No end group written: not given here.

Regarding “hp GRF(1-29)-NH2: a synthetic amidated fragment of the natural hp GRF (YADAIFTNSYRKVLGQLSARKLLQDIMSR-NH2; UniProt P01286 32-60, looked up, fragment)”, the intrinsic biological activity entry (reported by Spiess et al.) is “full intrinsic biological activity”. In the case of “hpGRF: growth hormone-releasing factors (GRF) of human pancreatic islet tumor origin (YADAIFTNSYRKVLGQLSARKLLQDIMSRQQGESNQERGARARL-NH2; ends and bridges not checked; UniProt P01286 32-75, looked up)”, the “growth hormone(GH)-releasing activity” value (rat anterior pituitary in vitro and in vivo) was “possess growth hormone(GH)-releasing activity”.
